Active and inactive are the calls of the source. How the calls were made is not given here.
Tested on: rodent carcinogenicity bioassays, tumor incidence
Assay: CCRIS carcinogenicity studies
Description: The CCRIS database contains chemical records with carcinogenicity, mutagenicity, tumor promotion, and tumor inhibition test results. It was developed by the National Cancer Institute (NCI). Data are derived from studies cited in primary journals, current awareness tools, NCI reports, and other sources. Test results have been reviewed by experts in carcinogenesis and mutagenesis.
CCRIS provides historical information from the years 1985 - 2011. It is no longer updated.
This is an archive assay for CCRIS carcinogenicity studies.

Nc1cc(S(=O)(=O)O)cc2c1C(=O)/C(=N/Nc1ccc(-c3ccc(N/N=C4/C(=O)c5c(N)cc(S(=O)(=O)O)cc5C=C4S(=O)(=O)O)cc3)cc1)C(S(=O)(=O)O)=C2
carcinogen call (Species: RAT, Strain/Sex: F344/FEMALE, Route: ORAL, Dose: 0, 190, 375, 750, 1500, 3000 PPM IN DIET FOR 91 D (STUDY DURATION: 93 D), Dose: 0, 190, 375, 750, 1500, 3000 PPM IN DIET FOR 91 D (STUDY DURATION: 93 D), Tumor Site: Type of Lesion: LIVER: HEPATOCELLULAR CARCINOMA OR NEOPLASTIC NODULE, FOCI OF CELLULAR ALTERATION OR BASOPHILIC FOCI): active; positive | carcinogen call (Species: RAT, Strain/Sex: F344/MALE, Route: ORAL, Dose: 0, 190, 375, 750, 1500, 3000 PPM IN DIET FOR 91 D (STUDY DURATION: 93 D), Dose: 0, 190, 375, 750, 1500, 3000 PPM IN DIET FOR 91 D (STUDY DURATION: 93 D), Tumor Site: Type of Lesion: LIVER: HEPATOCELLULAR CARCINOMA OR NEOPLASTIC NODULE, FOCI OF CELLULAR ALTERATION OR BASOPHILIC FOCI): active; positive

CCN(CC)c1ccc(C(=C2C=CC(=[N+](CC)CC)C=C2)c2ccc(S(=O)(=O)O)cc2S(=O)(=O)[O-])cc1
carcinogen call (Species: RAT, Route: SUBCUTANEOUS, INTRAMUSCULAR, Tumor Site: Type of Lesion: INJECTION SITE): active; positive

Clc1c2ccccc2cc2c1ccc1ccccc12
carcinogen call (Species: MOUSE, Strain/Sex: B6C3F1/MALE, Route: INTRAPERITONEAL, Dose: 0, 1600 NMOL (TOTAL DOSE) ADMINISTERED IN DOSES OF 1/7 WITHIN 24 HR OF BIRTH, 2/7 AT 8 DAYS OF AGE AND 4/7 AT 15 DAYS OF, Tumor Site: Type of Lesion: LIVER: ADENOMA, CARCINOMA): active; positive

c1ccc(C2CO2)cc1 (centres undefined)
carcinogen call (Species: MOUSE, Strain/Sex: B6C3F1/FEMALE, Route: GAVAGE, Dose: 0, 375, 750 MG/KG IN CORN OIL 3 D/WK FOR UP TO 104 WK (STUDY DURATION: 24 MO), Dose: 0, 375, 750 MG/KG IN CORN OIL 3 D/WK FOR UP TO 104 WK (STUDY DURATION: 24 MO), Tumor Site: Type of Lesion: FORESTOMACH: PAPILLOMA, CARCINOMA): active; positive | carcinogen call (Species: MOUSE, Strain/Sex: B6C3F1/MALE, Route: GAVAGE, Dose: 0, 375, 750 MG/KG IN CORN OIL 3 D/WK FOR UP TO 104 WK (STUDY DURATION: 24 MO), Dose: 0, 375, 750 MG/KG IN CORN OIL 3 D/WK FOR UP TO 104 WK (STUDY DURATION: 24 MO), Tumor Site: Type of Lesion: LIVER: CARCINOMA OR ADENOMA, FORESTOMACH: PAPILLOMA, CARCINOMA): active; positive | carcinogen call (Species: RAT, Strain/Sex: BDIV/FEMALE, Route: GAVAGE, Dose: 0, 100-150 MG/KG IN OLIVE OIL 1/WK FOR 96 WK ADMINISTERED TO OFFSPRING OF FEMALE RATS GIVEN 200 MG/KG ONCE ON DAY 17 OF, Tumor Site: Type of Lesion: FORESTOMACH: CARCINOMA IN SITU, CARCINOMA): active; positive | carcinogen call (Species: RAT, Strain/Sex: BDIV/FEMALE, Route: GAVAGE, Dose: 0, 200 MG/KG ONCE IN OLIVE OIL ON DAY 17 OF PREGNANCY (STUDY DURATION: 120 WK)): inactive; negative | carcinogen call (Species: RAT, Strain/Sex: BDIV/MALE, Route: GAVAGE, Dose: 0, 100-150 MG/KG IN OLIVE OIL 1/WK FOR 96 WK ADMINISTERED TO OFFSPRING OF FEMALE RATS GIVEN 200 MG/KG ONCE ON DAY 17 OF, Tumor Site: Type of Lesion: FORESTOMACH: PAPILLOMA, CARCINOMA IN SITU, CARCINOMA): active; positive | carcinogen call (Species: RAT, Strain/Sex: F344/FEMALE, Route: GAVAGE, Dose: 0, 275, 550 MG/KG IN CORN OIL 3 D/WK FOR 104 WK (STUDY DURATION: 24 MO), Dose: 0, 275, 550 MG/KG IN CORN OIL 3 D/WK FOR 104 WK (STUDY DURATION: 24 MO), Tumor Site: Type of Lesion: FORESTOMACH: PAPILLOMA, SQUAMOUS CELL CARCINOMA): active; positive | carcinogen call (Species: RAT, Strain/Sex: F344/MALE, Route: GAVAGE, Dose: 0, 275, 550 MG/KG IN CORN OIL 3 D/WK FOR 104 WK (STUDY DURATION: 24 MO), Dose: 0, 275, 550 MG/KG IN CORN OIL 3 D/WK FOR 104 WK (STUDY DURATION: 24 MO), Tumor Site: Type of Lesion: FORESTOMACH: PAPILLOMA, SQUAMOUS CELL CARCINOMA): active; positive | carcinogen call (Species: RAT, Strain/Sex: SPRAGUE-DAWLEY/FEMALE, Route: GAVAGE, Dose: 0, 50, 250 MG/KG BW IN OLIVE OIL 1/D 4-5 D/WK FOR 52 WK (STUDY DURATION: LIFETIME), Dose: 0, 50, 250 MG/KG BW IN OLIVE OIL 1/D 4-5 D/WK FOR 52 WK (STUDY DURATION: LIFETIME), Tumor Site: Type of Lesion: [BRAIN WAS ONLY SITE EVALUATED]): inactive; negative | carcinogen call (Species: RAT, Strain/Sex: SPRAGUE-DAWLEY/FEMALE, Route: INTRAGASTRIC, Dose: 0, 50, 250 MG/KG IN OLIVE OIL 1/D, 4-5 D/WK FOR 52 WK (STUDY DURATION: LIFESPAN, Dose: 0, 50, 250 MG/KG IN OLIVE OIL 1/D, 4-5 D/WK FOR 52 WK (STUDY DURATION: LIFESPAN, Tumor Site: Type of Lesion: FORESTOMACH: PAPILLOMA OR ACANTHOMA, SQUAMOUS CELL CARCINOMA): active; positive | carcinogen call (Species: RAT, Strain/Sex: SPRAGUE-DAWLEY/MALE, Route: GAVAGE, Dose: 0, 50, 250 MG/KG BW IN OLIVE OIL 1/D 4-5 D/WK FOR 52 WK (STUDY DURATION: LIFETIME), Dose: 0, 50, 250 MG/KG BW IN OLIVE OIL 1/D 4-5 D/WK FOR 52 WK (STUDY DURATION: LIFETIME), Tumor Site: Type of Lesion: [BRAIN WAS ONLY SITE EVALUATED]): inactive; negative | carcinogen call (Species: RAT, Strain/Sex: SPRAGUE-DAWLEY/MALE, Route: INTRAGASTRIC, Dose: 0, 50, 250 MG/KG IN OLIVE OIL 1/D, 4-5 D/WK FOR 52 WK (STUDY DURATION: LIFESPAN, Dose: 0, 50, 250 MG/KG IN OLIVE OIL 1/D, 4-5 D/WK FOR 52 WK (STUDY DURATION: LIFESPAN, Tumor Site: Type of Lesion: FORESTOMACH: PAPILLOMA OR ACANTHOMA, SQUAMOUS CELL CARCINOMA): active; positive

Nc1cc2c3ccccc3ccc2c2ccccc12
carcinogen call (Species: MOUSE, Strain/Sex: SWISS/FEMALE, Route: INTRAPERITONEAL, Dose: 0, 100 NMOL (TOTAL DOSE) 1/7, 2/7 AND 4/7 ADMINISTERED ON DAYS 1, 8 AND 15 OF LIFE RESPECTIVELY (STUDY DURATION: 32 WK)): inactive; negative | carcinogen call (Species: MOUSE, Strain/Sex: SWISS/MALE, Route: INTRAPERITONEAL, Dose: 0, 100 NMOL (TOTAL DOSE) 1/7, 2/7 AND 4/7 ADMINISTERED ON DAYS 1, 8 AND 15 OF LIFE RESPECTIVELY (STUDY DURATION: 32 WK)): inactive; negative

O=NN1CCCCCCC1
carcinogen call (Species: HAMSTER, Strain/Sex: EUROPEAN/FEMALE, Route: SUBCUTANEOUS, Dose: 11, 22, 44 MG/KG 3/WK, Dose: 11, 22, 44 MG/KG 3/WK, Tumor Site: Type of Lesion: LUNG: ADENOCARCINOMA, SQUAMOUS CELL CARCINOMA, NASAL CAVITY: SQUAMOUS CELL CARCINOMA): active; positive | carcinogen call (Species: HAMSTER, Strain/Sex: EUROPEAN/MALE, Route: SUBCUTANEOUS, Dose: 16.5, 33, 66 MG/KG 3/WK, Dose: 16.5, 33, 66 MG/KG 3/WK, Tumor Site: Type of Lesion: LUNG: ADENOCARCINOMA, SQUAMOUS CELL CARCINOMA, NASAL CAVITY: SQUAMOUS CELL CARCINOMA): active; positive | carcinogen call (Species: HAMSTER, Strain/Sex: SYRIAN/MALE, Route: ORAL, Dose: 50, 200 MG/L 5 NIGHT/WK FOR 50 WK IN DRINKING WATER, Tumor Site: Type of Lesion: NASAL CAVITY, LARYNX, PHARYNX, TRACHEA, ESOPHAGUS, FORESTOMACH, Tumor Site: Type of Lesion: NASAL CAVITY, LARYNX, PHARYNX, TRACHEA, ESOPHAGUS, FORESTOMACH): active; positive | carcinogen call (Species: RAT, Strain/Sex: LISTER/FEMALE, Route: SUBCUTANEOUS, Dose: 0, 1 MG 1/WK FOR 10 WK (STUDY DURATION: 104 WK)): inactive; negative | carcinogen call (Species: RAT, Strain/Sex: MRC/MALE,FEMALE, Route: ORAL, Dose: 100 MG/L 5 D/WK FOR 30 WK IN DRINKING WATER, Tumor Site: Type of Lesion: ESOPHAGUS, TRACHEA: SQUAMOUS CELL PAPILLOMA, LUNG: SQUAMOUS CELL CARCINOMA, Tumor Site: Type of Lesion: ESOPHAGUS, TRACHEA: SQUAMOUS CELL PAPILLOMA, LUNG: SQUAMOUS CELL CARCINOMA): active; positive

CCCc1ccc2c(c1)OCO2
carcinogen call (Species: MOUSE, Route: ORAL, Tumor Site: Type of Lesion: LIVER, LUNG): active; positive | carcinogen call (Species: RAT, Route: ORAL, Tumor Site: Type of Lesion: ESOPHAGUS): active; positive
